In ChEMBL document CHEMBL5537141, “Targeting PIM kinases in cancer therapy: An update on pharmacological small-molecule inhibitors” (Eur J Med Chem, 2024):

Test: Metabolic stability in human liver microsomes assessed as half life measured upto 60 mins by LC/MS-MS analysis
Type: ADME, Microsome

half-life	Structure (SMILES)
> 180 min	C[C@@H]1C[C@H](N)C[C@H](c2ccncc2NC(=O)c2ccc(F)c(-c3ccccc3F)n2)C1
13 min	C[C@@H]1C[C@H](N)CN(c2ccncc2NC(=O)c2ccc(F)c(-c3ccccc3F)n2)C1
40 min	C[C@@H]1C[C@H](N)CN(c2ccncc2NC(=O)c2ccc(F)c(-c3c(F)cccc3F)n2)C1
